The numbers were not newly measured in PubChem BioAssay AID1259409 (Chemical Carcinogenesis Research Information System (CCRIS), 2018), which cites them from elsewhere.

This data set relates to rodent chemically induced tumor inhibition, incidence and multiplicity. Kind of data set: CCRIS tumor inhibitor studies. The following applies: Promoter: NONE USED.

Turning to `COc1ccc2c(c1)c(CC(=O)O)c(C)n2C(=O)c1ccc(Cl)cc1`, the “tumour outcome (control, treated, inhibition, significance)” value was 13/42 (31%), 3/25 (12%), 61%, not significant (Carcinogen: N-ETHYL-N-NITROSOUREA, 759-73-9, Dose [Inhibitor]: 0, 20 MG/L IN DRINKING WATER FOR 12 MO ADMINISTERED TO OFFSPRING OF CARCINOGEN-TREATED MOTHERS (STUDY DURATION: 12 MO), Route [Inhibitor]: ORAL, Species: RAT, Strain/Sex: ALBINO/MALE, FEMALE, Target Tissue: Type of Lesion: PERIPHERAL NERVES: TUMOR, Dose [Carcinogen]: 75 MG/KG BW ADMINISTERED INTRAPERITONEALLY TO MOTHERS 21 D POST CONCEPTION); 11/42 (26%), 4/25 (16%), 38%, not significant (Carcinogen: N-ETHYL-N-NITROSOUREA, 759-73-9, Dose [Inhibitor]: 0, 20 MG/L IN DRINKING WATER FOR 12 MO ADMINISTERED TO OFFSPRING OF CARCINOGEN-TREATED MOTHERS (STUDY DURATION: 12 MO), Route [Inhibitor]: ORAL, Species: RAT, Strain/Sex: ALBINO/MALE, FEMALE, Target Tissue: Type of Lesion: SPINAL CHORD: TUMOR, Dose [Carcinogen]: 75 MG/KG BW ADMINISTERED INTRAPERITONEALLY TO MOTHERS 21 D POST CONCEPTION); 6/9 (67%), 6/9 (67%), 0%, not significant (Carcinogen: N-METHYL-N-NITROSOUREA, 684-93-5, Dose [Inhibitor]: 2.5 MG/KG BW FOR 10 WK STARTING 21 WK POST CARCINOGEN TREATMENT (STUDY DURATION: 35 WK), Route [Inhibitor]: INTRAPERITONEAL, Species: RAT, Strain/Sex: CD/F344/FEMALE, Target Tissue: Type of Lesion: COLON: ADENOCARCINOMA, Dose [Carcinogen]: 2 MG 3/WK FOR 5 WK); 20/30 (67%), 9/29 (31%), 54%, p<0.02 (Carcinogen: N-METHYL-N-NITROSOUREA, 684-93-5, Dose [Inhibitor]: 2.5 MG/KG BW FOR 15 WK STARTING 5 WK POST CARCINOGEN TREATMENT (STUDY DURATION: 26 WK), Route [Inhibitor]: INTRAPERITONEAL, Species: RAT, Strain/Sex: CD/F344/FEMALE, Target Tissue: Type of Lesion: COLON: ADENOCARCINOMA, Dose [Carcinogen]: 2 MG 3/WK FOR 5 WK); 6/9 (67%), 7/9 (78%), -16%, not significant (Carcinogen: N-METHYL-N-NITROSOUREA, 684-93-5, Dose [Inhibitor]: 2.5 MG/KG BW FOR 15 WK STARTING 5 WK POST CARCINOGEN TREATMENT FOLLOWED BY 10 WK CESSATION OF TREATMENT (STUDY DURATION:, Route [Inhibitor]: INTRAPERITONEAL, Species: RAT, Strain/Sex: CD/F344/FEMALE, Target Tissue: Type of Lesion: COLON: ADENOCARCINOMA, Dose [Carcinogen]: 2 MG 3/WK FOR 5 WK); 18/27 (67%), 4/28 (14%), 79%, p<0.01 (Carcinogen: N-METHYL-N-NITROSOUREA, 684-93-5, Dose [Inhibitor]: 10 UG/ML TAP WATER FOR 15 WK STARTING 10 WK AFTER THE START OF CARCINOGEN TREATMENT AND CONTINUING THROUGH END OF STUDY, Route [Inhibitor]: ORAL, Species: RAT, Strain/Sex: CD-FISCHER/FEMALE, Target Tissue: Type of Lesion: LARGE INTESTINE: ADENOCARCINOMA, Dose [Carcinogen]: 2 MG 3/WK FOR 5 WK). The “tumour outcome (control, treated, inhibition, significance)” value (Carcinogen: N-METHYL-N-NITROSOUREA, 684-93-5, Dose [Inhibitor]: 20 UG/ML TAP WATER FOR 15 WK STARTING 10 WK AFTER THE START OF CARCINOGEN TREATMENT AND CONTINUING THROUGH END OF STUDY, Route [Inhibitor]: ORAL, Species: RAT, Strain/Sex: CD-FISCHER/FEMALE, Target Tissue: Type of Lesion: LARGE INTESTINE: ADENOCARCINOMA, Dose [Carcinogen]: 2 MG 3/WK FOR 5 WK) is given as 18/27 (67%), 4/24 (17%), 75%, p<0.01; the “tumour outcome (control, treated, inhibition, significance)” value (Carcinogen: N-NITROSOMETHYLUREA, 684-93-5, Dose [Inhibitor]: 0, 0.001% IN DRINKING WATER FOR STUDY DAYS 1 TO 8 (STUDY DURATION: 31 WK), Route [Inhibitor]: ORAL, Species: RAT, Strain/Sex: SPRAGUE-DAWLEY/MALE, Target Tissue: Type of Lesion: LARGE BOWEL: ADENOCARCINOMA, Dose [Carcinogen]: 4 MG ON D 3, 5 AND 7 OF STUDY) is 26/29 (90%), 20/30 (67%), 26%, not significant; the “tumour outcome (control, treated, inhibition, significance)” value (Carcinogen: UVB IRRADIATION, Dose [Inhibitor]: 700 NMOL IN 0.1 ML ACETONE 5/WK FOR 4 WK IMMEDIATELY AFTER EACH EXPOSURE TO UVB FOLLOWED BY 48 WK OBSERVATION PERIOD (ST, Route [Inhibitor]: DERMAL, Species: MOUSE, Strain/Sex: SKH/HRL/FEMALE, Target Tissue: Type of Lesion: SKIN: TUMOR, Dose [Carcinogen]: 0.3 KJ/SQM ON FIRST DAY, 0.6 KJ/SQM ON SECOND DAY THEN 0.9 KJ/SQM UVB ADMINISTERED 5 D/WK FOR 4 WK) is reported as 8/27 (30%), 6/26 (23%), 23%, not significant; the “tumour outcome (control, treated, inhibition, significance)” value (Dose [Inhibitor]: 0, 0.005% IN DIET FOR DURATION OF STUDY BEGINNING SIMULTANEOUSLY WITH CARCINOGEN TREATMENT (STUDY DURATION: 40 WK), Route [Inhibitor]: ORAL, Species: RAT, Strain/Sex: WISTAR/MALE, Target Tissue: Type of Lesion: COLON: TUMOR, Dose [Carcinogen]: 1 ML OF 0.1% DISTILLED WATER SOLUTION 1/D FOR 14 D) is 27/33 (82%), 5/18 (28%), 66%, p<0.01.
